Measured values: US12473296B2, “Perk inhibiting compounds” (HiberCell, Inc., priority 2019, dated 2025)
pIC50: −log10 of the molar value.

Legend:
[1] = target: EIF2AK3 (PERK) catalytic domain (amino acids 536-1116) (Homo sapiens (Human), UniProt Q9NZJ5); experiment: PERK in vitro activity assay (isolated), TR-FRET kinase assay; details: isolated PERK enzyme, 1.5 μM ATP, GFP-eIF2a substrate; read-out: Biochemical IC50
Description: PERK In Vitro Activity Assay (Isolated):
In vitro Inhibition of PERK Enzyme Activity (isolated) Recombinant human EIF2AK2 (PKR) catalytic domain (amino acids 252-551), EIF2AK3 (PERK) catalytic domain (amino acids 536-1116), GFP-eIF2a substrate, and Terbium-labelled phospho-eIF2a antibody is obtained (Invitrogen, Carlsbad, CA).
Express and purify HIS-SUMO-GCN2 catalytic domain (amino acids 584-1019) from E. coli. Perform TR-FRET kinase assays in the absence or presence of inhibitors in a reaction buffer consisting of 50 mM HEPES, pH 7.5, 10 mM MgCb, 1.0 mM EGTA, and 0.01% Brij-35, and 100-200 nM GFP-eIF2a substrate. […] Add test compound, initiate the reaction by addition of enzyme, and incubate at room temperature for 45 minutes. Stop the reaction by addition of EDTA to a final concentration of 10 mM, add Terbium-labelled phospho-eIF2a antibody at a final concentration of 2 nM, and incubate for 90 minutes. Monitor the resulting fluorescence in an EnVison® Multilabel reader (PerkinElmer, Waltham, MA). Determine TR-FRET ratios and the resulting IC50 values using a 4-parameter nonlinear logistic equation as shown: Y=(A+((B−A)/(1+((C/x)[…])))) where, Y=% specific inhibition, A=Bottom of the curve, B=Top of the curve, C=absolute IC50 (concentration causing 50% inhibition), and D=hill slope.

PERK = PERK (Homo sapiens (Human), UniProt Q9NZJ5); experiment: PERK cellular assay (TR-FRET, HEK293-EGFP-eIF2α cells, tunicamycin-induced ER stress); type: cell-based; details: tunicamycin 2 hours, read-out: Cellular IC50 (μM) (EIF2a)
Description: Stable cell lines were created in HEK293 cells using lentiviral particles harboring an expression vector for GFP-eIF2α. Cells were selected using puromycin and enriched using fluorescence activated cell sorting against GFP. HEK293-EGFP-eIF2α cells were plated at 5000 cells/well in 384-well assay plates and incubated overnight at 37° C., 5% CO2. Inhibitor compounds were added to the wells by Echo acoustic dispensing and incubated for 30 minutes at 37° C., 5% CO2 prior to induction of ER stress by addition of tunicamycin to […] for 2 hours. Cells were lysed and TR-FRET was measured in an EnVision plate reader (PerkinElmer). FRET ratio data was normalized to signal from lysates treated with DMSO vehicle control and plotted as percent inhibition against 10-point; 3-fold dilution series of inhibitors. IC50 values were calculated using 4-parameter logistical fitting in XLFit.

Chain of PERK (Q9NZJ5 30-1116): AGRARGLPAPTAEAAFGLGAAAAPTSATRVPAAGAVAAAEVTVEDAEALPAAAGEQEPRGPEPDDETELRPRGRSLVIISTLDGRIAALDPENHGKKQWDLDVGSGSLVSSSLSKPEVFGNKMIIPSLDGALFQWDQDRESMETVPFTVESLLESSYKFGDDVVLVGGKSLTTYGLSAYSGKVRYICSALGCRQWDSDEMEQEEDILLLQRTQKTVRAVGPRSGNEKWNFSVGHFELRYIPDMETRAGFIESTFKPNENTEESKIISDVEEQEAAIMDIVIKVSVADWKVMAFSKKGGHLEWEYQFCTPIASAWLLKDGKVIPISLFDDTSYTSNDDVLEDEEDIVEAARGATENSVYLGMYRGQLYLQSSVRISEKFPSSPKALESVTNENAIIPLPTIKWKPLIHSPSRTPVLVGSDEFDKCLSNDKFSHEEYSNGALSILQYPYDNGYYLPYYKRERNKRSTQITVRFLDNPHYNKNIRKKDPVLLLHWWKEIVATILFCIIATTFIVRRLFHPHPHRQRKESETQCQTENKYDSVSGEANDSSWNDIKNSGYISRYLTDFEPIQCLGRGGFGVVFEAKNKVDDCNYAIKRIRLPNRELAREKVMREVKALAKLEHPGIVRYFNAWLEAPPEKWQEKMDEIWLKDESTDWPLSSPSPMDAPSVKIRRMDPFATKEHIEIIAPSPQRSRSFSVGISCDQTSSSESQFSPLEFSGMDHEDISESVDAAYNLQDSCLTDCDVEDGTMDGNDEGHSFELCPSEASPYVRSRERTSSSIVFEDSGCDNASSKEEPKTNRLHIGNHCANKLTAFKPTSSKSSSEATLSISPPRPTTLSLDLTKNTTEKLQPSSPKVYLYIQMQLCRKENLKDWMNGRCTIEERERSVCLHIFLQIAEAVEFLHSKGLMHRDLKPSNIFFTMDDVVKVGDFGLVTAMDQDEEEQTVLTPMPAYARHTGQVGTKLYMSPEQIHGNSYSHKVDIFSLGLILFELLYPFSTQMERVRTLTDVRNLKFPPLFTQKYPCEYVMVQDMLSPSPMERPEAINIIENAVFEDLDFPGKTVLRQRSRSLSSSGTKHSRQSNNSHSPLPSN
Chain of EIF2AK3 (PERK) catalytic domain (amino acids 536-1116) (Q9NZJ5 536-1116): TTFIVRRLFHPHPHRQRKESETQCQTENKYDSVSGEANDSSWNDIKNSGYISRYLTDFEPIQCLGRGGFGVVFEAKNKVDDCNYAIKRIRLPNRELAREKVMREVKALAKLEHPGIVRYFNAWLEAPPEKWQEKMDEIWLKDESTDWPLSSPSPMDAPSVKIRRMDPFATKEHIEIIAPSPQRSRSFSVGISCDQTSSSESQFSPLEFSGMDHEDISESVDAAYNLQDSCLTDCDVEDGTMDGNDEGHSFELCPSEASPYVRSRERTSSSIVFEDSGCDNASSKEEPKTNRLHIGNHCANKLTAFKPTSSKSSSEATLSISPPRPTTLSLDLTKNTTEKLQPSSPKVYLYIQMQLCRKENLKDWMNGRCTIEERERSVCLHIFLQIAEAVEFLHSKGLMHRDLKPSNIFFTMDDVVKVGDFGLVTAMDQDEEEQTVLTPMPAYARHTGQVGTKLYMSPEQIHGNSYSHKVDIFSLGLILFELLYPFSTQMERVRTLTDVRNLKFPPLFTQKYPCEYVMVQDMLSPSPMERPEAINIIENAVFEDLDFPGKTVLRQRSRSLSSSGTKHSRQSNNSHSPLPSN

pIC50 [1]	IC50 (PERK) [µM]	Compound
6.60 to 7.00	2 to 3	Cc1cc(NC(=O)C(C)(O)c2ccccc2)ccc1-c1cnc(N)c(C(=O)NC(C)C)c1 (centres unmarked) [Example 3, 2-amino-5-(4-(2-hydroxy-2-phenylpropanamido)-2-methylphenyl)-N-isopropylnicotinamide]
6.60 to 7.00	3 to 4	Cc1cc(NC(=O)C(C)(O)c2ccccc2)ccc1-c1cnc(N)c(C(=O)NC(C)C)c1 (centres unmarked) [Example 4, 2-amino-5-(4-(2-hydroxy-2-phenylpropanamido)-2-methylphenyl)-N-isopropylnicotinamide]
5.70 to 6.00	3 to 4	COC(C(=O)Nc1ccc(-c2cnc(N)c(C(=O)NC(C)C)c2)c(C)c1)c1ccccc1 (centres unmarked) [Example 5, 2-amino-N-isopropyl-5-(4-(2-methoxy-2-phenylacetamido)-2-methylphenyl) nicotinamide]
5.70 to 6.00	3 to 4	Cc1cc(NC(=O)C(N)c2ccccc2)ccc1-c1cnc(N)c(C(=O)NC(C)C)c1 (centres unmarked) [Example 6, 2-amino-5-(4-(2-amino-2-phenylacetamido)-2-methylphenyl)-N-isopropyl-nicotinamide]
5.70 to 6.00	> 5	Cc1cc(NC(=O)C(N)c2ccccc2)ccc1-c1cnc(N)c(C(=O)NC(C)C)c1 (centres unmarked) [Example 7, 2-amino-5-(4-(2-amino-2-phenylacetamido)-2-methylphenyl)-N-isopropylnicotinamide]
7.60 to 9.00	0.026 to 0.05	Cc1cc(NC(=O)C(O)c2cc(F)cc(F)c2)ccc1-c1cnc(N)c(C(=O)NC(C)C)c1 (centres unmarked) [Example 8, 2-amino-5-(4-(2-(3,5-difluorophenyl)-2-hydroxyacetamido)-2-methylphenyl)-N-isopropyl nicotinamide]
7.30 to 7.59	0.101 to 0.25	Cc1cc(NC(=O)C(O)c2cc(F)cc(F)c2)ccc1-c1cnc(N)c(C(=O)NC(C)C)c1 (centres unmarked) [Example 9, 2-amino-5-(4-(2-(3,5-difluorophenyl)-2-hydroxyacetamido)-2-methylphenyl)-N-isopropyl nicotinamide]
7.60 to 9.00	0.026 to 0.05	Cc1cc(NC(=O)[C@H](O)c2cc(F)cc(F)c2)ccc1-c1cnc(N)c(C(=O)NC2CC2)c1 [Example 14, (R)-2-amino-N-cyclopropyl-5-(4-(2-(3,5-difluorophenyl)-2-hydroxyacetamido)-2-methylphenyl)nicotinamide]
7.30 to 7.59	0.251 to 0.5	Cc1cc(NC(=O)C(O)c2cc(F)cc(F)c2)ccc1-c1cnc(N)c(C(=O)NC2CC2)c1 (centres unmarked) [Example 15, 2-amino-N-cyclopropyl-5-(4-(2-(3,5-difluorophenyl)-2-hydroxyacetamido)-2-methylphenyl) nicotinamide]
7.60 to 9.00	0.026 to 0.05	Cc1cc(NC(=O)C(O)c2cc(F)cc(F)c2)ccc1-c1cnc(N)c(C(=O)NCC(C)C)c1 (centres unmarked) [Example 20, 2-amino-5-(4-(2-(3,5-difluorophenyl)-2-hydroxyacetamido)-2-methylphenyl)-N-isobutylnicotinamide]
6.60 to 7.00	0.251 to 0.5	Cc1cc(NC(=O)C(O)c2cc(F)cc(F)c2)ccc1-c1cnc(N)c(C(=O)NCC(C)C)c1 (centres unmarked) [Example 21, 2-amino-5-(4-(2-(3,5-difluorophenyl)-2-hydroxyacetamido)-2-methylphenyl)-N-isobutylnicotinamide]
6.00 to 6.30	2 to 3	Cc1cc(NC(=O)C(O)c2cc(F)cc(F)c2)ccc1-c1cnc(N)c(C(=O)N(C)C)c1 (centres unmarked) [Example 22, 2-amino-5-(4-(2-(3,5-difluorophenyl)-2-hydroxyacetamido)-2-methylphenyl)-N,N-dimethylnicotinamide]
< 5.30	> 5	Cc1cc(NC(=O)C(O)c2cc(F)cc(F)c2)ccc1-c1cnc(N)c(C(=O)N(C)C)c1 (centres unmarked) [Example 23, 2-amino-5-(4-(2-(3,5-difluorophenyl)-2-hydroxyacetamido)-2-methylphenyl)-N,N-dimethylnicotinamide]
